Reference: patent US20090012152A1, “Use of Tetramic Acid Derivatives for Controlling Insects from the Genus of the Plane Lice (Sternorrhyncha)” (Bayer CropScience Aktiengesellschaft, priority 2005, published 2009)

How the values were obtained:
Type in all cases: in vivo
Bemisia argentifolii = assay: Example 35: aubergines (F 100) treated against Bemisia argentifolii; conditions: 7 d after last of three treatments, nymphs on leaves, % a.i.: imidacloprid 0.014, I-9, I-2, I-11 0.0144
Protocol: In three replications, plots of a size of 10 m^2 with aubergines of the cultivar “F 100” are treated against Bemisia argentifolii. The application is carried out using a knapsack sprayer operated with pressurized air. Here, the active compounds Example (I-9) (60 SC), Example (I-2) (60 SC) and Example (I-11) (60 SC) and the commercial standard imidacloprid (70 WG) are tested at the stated application rates. Three applications are carried out, at an interval or 7 or 8 days. The application rate is 1000 l of water/ha.
Evaluation is carried out 7 days after the last treatment by rating the kill of the nymphs on the leaves.

Aphis pomi [1] = assay: Example 41: apple trees treated against Aphis pomi (Henderson and Tilton); conditions: live animals on shoots, % a.i.: imidacloprid 0.007, I-9 0.0144, I-2 0.0144; for Effect (%) 7 d: 7 d after treatment; for Effect (%) 14 d: 14 d after treatment
Protocol: In three replications, three about 8-year-old apple trees of the cultivar “Golden Delicious” are treated eradicatively against Dysaphis plantaginea and Aphis pomi. The application is carried out using a motor-operated barrow-mounted sprayer. Here, the active compounds Example (I-9) (240 SC) and Example (I-2) (240 SC) in the stated amount are tested against the commercial standard imidacloprid (200 SL), at the stated application rate. The application rate is 1200 l of water/ha.
Evaluation is carried out before and also 7 d and 14 d after the treatment by counting the live animals on the shoots. The efficacy is then calculated by calculating the effect on the population in percent according to Henderson and Tilton.

Macrosiphum euphorbiae = assay: Example 43: aubergines treated against Macrosiphum euphorbiae; conditions: nymphs on leaves, % a.i.: imidacloprid 0.014, I-9, I-2, I-11 0.0144; for Kill (%) 7 d: 7 d after second treatment; for Kill (%) 14 d: 14 d after second treatment
Protocol: In three replications, plots of a size of 10 m^2 with aubergines of the cultivar “F 100” are treated against Macrosiphum euphorbiae. The application is carried out using a knapsack sprayer operated with pressurized air. Here, the active compounds Example (I-9) (60 SC), Example (I-2) (60 SC) and Example (I-11) (60 SC) and the commercial standard imidacloprid (70 WG) are tested at the stated application rates. Three applications are carried out, at an interval of 7 or 8 days. The application rate is 1000 l of water/ha.
Evaluation is carried out 7 and 14 days after the second treatment by rating the kill of the nymphs on the leaves.

Paratrioza cockerelli = assay: Example 7: bell peppers treated against Paratrioza cockerelli; conditions: nymphs on leaves, g a.i./ha: imidacloprid 52.6, I-4 72, dimethoate 561; for Kill (%) 7 d: 7 d after treatment; for Kill (%) 15 d: 15 d after treatment
Protocol: In four replications, plots of a size of about 7 m^2 with bell peppers of the cultivar “Jupiter” are treated against Paratrioza cockerelli. The application is carried out with a knapsack sprayer operated with pressurized air. Here, the active compound Example (I-4) (240 SC) is applied in a tank mix with 0.2% a.i. of rapeseed oil methyl ester (500 EW) and the commercial standards imidacloprid 192 SC and dimethoate (480 EC) are applied in a tank mix with 0.125% Induce at the stated application rates. The application is carried out with an application rate of 467 l of water/ha.
Evaluation is carried out 7 and 15 days after the treatment by rating the kill of the animals (nymphs) on the leaves.

Trioza erythreae = assay: Example 8: orange trees treated against Trioza erythreae; conditions: nymphs on branches, rate %: imidacloprid 0.004, I-4 0.0144; for Kill (%) 7 d: 7 d after first of two treatments; for Kill (%) 14 d: 14 d after first of two treatments; for Kill (%) 20 d: 20 d after first of two treatments
Protocol: In three replications, about 2-year-old orange trees are treated against Trioza erythreae. The application is carried out using a knapsack sprayer operated with pressurized air. Here, the active compound Example (I-4) (240 SC) is tested in a tank mix with 0.2% a.i. of rapeseed oil methyl ester (500 EW) against the commercial standard imidacloprid (100 SL) at the stated application rates. The application rate is 540 l of water/ha. Two treatments are carried out, at an interval of 7 days.
Evaluation is carried out 7, 14 and 20 days after the first treatment by rating the kill of the nymphs on the branches.

Bemisia tabaci = assay: Example 33: cucumbers treated against Bemisia tabaci; conditions: nymphs on leaves, % a.i.: imidacloprid 0.144, I-4 0.084; for Kill (%) 7 d: 7 d after first of two treatments; for Kill (%) 11 d: 11 d after first of two treatments; for Kill (%) 21 d: 21 d after first of two treatments
Protocol: In four replications, plots of a size of 26 m^2 with cucumbers of the cultivar “Beta alpha” are treated against Bemisia tabaci. The application is carried out using a knapsack sprayer operated with pressurized air. Here, the active compound Example (I-4) (240 SC), in a tank mix with 0.1% a.i. of rapeseed oil methyl ester (500 EW), and the commercial standard imidacloprid (200 SC) are tested at the stated application rates. Two applications are carried out, at an interval of 10 days. The application rate is 1000 l of water/ha.
Evaluation is carried out 7, 11 and 21 days after the first treatment by rating the kill of the animals (nymphs) on leaves.

Dysaphis plantaginea = assay: Example 40: apple trees treated against Dysaphis plantaginea; conditions: population on shoots, % a.i.: imidacloprid 0.007, I-9 0.0144, I-4 0.0144; for Kill (%) 14 d: 14 d after treatment; for Kill (%) 21 d: 21 d after treatment
Protocol: (§1) In three replications, three about 22-year-old apple trees of the cultivar “Golden Delicious” are treated eradicatively against Dysaphis plantaginea and Aphis pomi. The application is carried out using a motor-operated barrow-mounted sprayer. Here, the active compounds Example (I-9) (240 SC) and Example (I-4) (240 SC) in the stated amount are tested against the commercial standard imidacloprid (200 SL), at the stated application rate. The application rate is 1200 l of water/ha.
(§2) Evaluation is carried out 14 d and 21 d after the treatment by rating the kill of the population on the shoots.

Aphis pomi [2] = assay: Example 40: apple trees treated against Aphis pomi; conditions: population on shoots, % a.i.: imidacloprid 0.007, I-9 0.0144, I-4 0.0144; for Kill (%) 14 d: 14 d after treatment; for Kill (%) 21 d: 21 d after treatment
Protocol: as §1, §2

Aphis gossypii = assay: Example 52: melons treated against Aphis gossypii; conditions: on shoots, g a.i./ha: imidacloprid 100, I-4 48; for Kill (%) 3 d: 3 d after treatment; for Kill (%) 7 d: 7 d after treatment
Protocol: In three replications, plots of a size of 15 m^2 with melons are treated against Aphis gossypii. The application is carried out using a knapsack sprayer operated with pressurized air. Here, the active compound Example (I-4) (240 SC), in a tank mix with 0.1% a.i. of rapeseed oil methyl ester (500 EW), and the standard imidacloprid (200 SL) are applied at the stated application rates. The application rate is 500 l of water/ha.
Evaluation is carried out 3 days and 7 days after the treatment by rating the kill of the animals on the shoots.

Row | SMILES | Kill (%) 7 d (Bemisia argentifolii) | Effect (%) 7 d (Aphis pomi [1]) | Effect (%) 14 d (Aphis pomi [1]) | Kill (%) 7 d (Macrosiphum euphorbiae) | Kill (%) 14 d (Macrosiphum euphorbiae) | Kill (%) 7 d (Paratrioza cockerelli) | Kill (%) 15 d (Paratrioza cockerelli) | Kill (%) 7 d (Trioza erythreae) | Kill (%) 14 d (Trioza erythreae) | Kill (%) 20 d (Trioza erythreae) | Kill (%) 7 d (Bemisia tabaci) | Kill (%) 11 d (Bemisia tabaci) | Kill (%) 21 d (Bemisia tabaci) | Kill (%) 14 d (Dysaphis plantaginea) | Kill (%) 21 d (Dysaphis plantaginea) | Kill (%) 14 d (Aphis pomi [2]) | Kill (%) 21 d (Aphis pomi [2]) | Kill (%) 3 d (Aphis gossypii) | Kill (%) 7 d (Aphis gossypii)
1 | CCOC(=O)OC1=C(c2cc(C)ccc2Br)C(=O)NC12CCC(OC)CC2 (centres unmarked) [Example (I-2)] | 100% | 99.1% | 97.1% | 99% | 91% | – | – | – | – | – | – | – | – | – | – | – | – | – | –
2 | CCOC(=O)OC1=C(c2cc(C)ccc2C)C(=O)NC12CCC(OC)CC2 (centres unmarked) [Example (I-4)] | – | – | – | – | – | 90% | 100% | 97.9% | 98.9% | 98.3% | 75% | 87% | 90% | 99.3% | 100% | 96.9% | 98.8% | 94.7% | 100%
3 | O=[N+]([O-])NC1=NCCN1Cc1ccc(Cl)nc1 [imidacloprid, reference compound] | 100% | 99% | 83.5% | 100% | 100% | 90% | 0% | 98.4% | 99.2% | 98.6% | 89% | 96% | 96% | 97.6% | 99.8% | 93.6% | 92.5% | 98.2% | 100%
